# Source: ChEMBL document CHEMBL4033685, “C21-steroidal pregnane sapogenins and their derivatives as anti-inflammatory agents” (Bioorg Med Chem, 2017)
# Active and inactive are the calls of the source. No cut-off for these calls is given here.
# What was measured:
# THP-1 [1] = assay: Effect on RelB protein expression in human THP1 cells at 10 uM after 3 hrs by Western blot analysis; type: functional, cell-based
# Toll-like receptor 4 [2] = target: T1, Toll-like receptor 4 (Homo sapiens, UniProt O00206); assay: Antagonist activity at TLR4 (unknown origin) expressed in human AD293 cells assessed as inhibition of LPS/ATP-stimulated TLR4/NF-kB signaling pathway after 16 hrs by luciferase reporter gene assay; type: cell-based
# T1 sequence (O00206 whole entry): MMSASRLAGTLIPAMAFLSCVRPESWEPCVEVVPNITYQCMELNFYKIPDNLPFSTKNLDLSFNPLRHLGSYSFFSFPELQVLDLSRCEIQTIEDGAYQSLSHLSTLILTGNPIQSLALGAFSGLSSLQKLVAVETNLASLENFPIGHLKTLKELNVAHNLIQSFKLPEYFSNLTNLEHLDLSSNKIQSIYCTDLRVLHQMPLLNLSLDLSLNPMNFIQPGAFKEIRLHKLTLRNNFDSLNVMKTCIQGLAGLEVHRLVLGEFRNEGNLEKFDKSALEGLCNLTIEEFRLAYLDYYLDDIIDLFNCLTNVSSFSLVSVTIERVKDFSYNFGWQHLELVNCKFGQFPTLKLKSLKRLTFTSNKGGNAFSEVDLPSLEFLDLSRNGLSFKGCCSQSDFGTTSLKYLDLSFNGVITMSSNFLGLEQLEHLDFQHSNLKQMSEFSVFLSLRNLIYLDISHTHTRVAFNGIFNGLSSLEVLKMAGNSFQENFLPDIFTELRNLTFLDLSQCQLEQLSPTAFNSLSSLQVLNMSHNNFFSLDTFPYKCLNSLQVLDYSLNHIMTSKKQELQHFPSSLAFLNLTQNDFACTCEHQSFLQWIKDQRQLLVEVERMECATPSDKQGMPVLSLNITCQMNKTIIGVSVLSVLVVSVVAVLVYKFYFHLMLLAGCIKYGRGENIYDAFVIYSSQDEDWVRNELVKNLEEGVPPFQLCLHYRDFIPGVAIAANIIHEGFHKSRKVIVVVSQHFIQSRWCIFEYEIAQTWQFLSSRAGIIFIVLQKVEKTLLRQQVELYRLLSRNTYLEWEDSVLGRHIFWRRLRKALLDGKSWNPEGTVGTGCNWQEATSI
# Homo sapiens = species on record: Homo sapiens; assay: Inhibition of TNFalpha-stimulated NF-kB signaling pathway (unknown origin) expressed in human AD293 cells after 4 hrs by luciferase reporter gene assay; type: cell-based
# AD293 [3] = assay: Cytotoxicity against human AD293 cells assessed as reduction in cell viability after 24 hrs by methylene blue dye based spectrophotometric method; settings: ad293, 24 h
# Toll-like receptor 4 [4] = target: T1, Toll-like receptor 4; assay: Antagonist activity at TLR4 in human THP1 cells assessed as inhibition of LPS-stimulated IL-1beta level at 10 uM by bead based immunoassay; type: cell-based
# Toll-like receptor 4 [5] = target: T1, Toll-like receptor 4; assay: Antagonist activity at TLR4 in human THP1 cells assessed as inhibition of LPS-stimulated TNFalpha level at 10 uM by bead based immunoassay; type: cell-based
# Toll-like receptor 4 [6] = target: T1, Toll-like receptor 4; assay: Antagonist activity at TLR4 in human THP1 cells assessed as inhibition of LPS-stimulated IL-6 level at 10 uM by bead based immunoassay; type: cell-based
# [7] = target: Toll-like receptor 3 (Homo sapiens) (UniProt O15455); assay: Antagonist activity at TLR3 in human THP1 cells assessed as inhibition of poly IC-stimulated TNFalpha level at 10 uM by bead based immunoassay; type: cell-based
# Sequence of Toll-like receptor 3 (Homo sapiens) (O15455 whole entry): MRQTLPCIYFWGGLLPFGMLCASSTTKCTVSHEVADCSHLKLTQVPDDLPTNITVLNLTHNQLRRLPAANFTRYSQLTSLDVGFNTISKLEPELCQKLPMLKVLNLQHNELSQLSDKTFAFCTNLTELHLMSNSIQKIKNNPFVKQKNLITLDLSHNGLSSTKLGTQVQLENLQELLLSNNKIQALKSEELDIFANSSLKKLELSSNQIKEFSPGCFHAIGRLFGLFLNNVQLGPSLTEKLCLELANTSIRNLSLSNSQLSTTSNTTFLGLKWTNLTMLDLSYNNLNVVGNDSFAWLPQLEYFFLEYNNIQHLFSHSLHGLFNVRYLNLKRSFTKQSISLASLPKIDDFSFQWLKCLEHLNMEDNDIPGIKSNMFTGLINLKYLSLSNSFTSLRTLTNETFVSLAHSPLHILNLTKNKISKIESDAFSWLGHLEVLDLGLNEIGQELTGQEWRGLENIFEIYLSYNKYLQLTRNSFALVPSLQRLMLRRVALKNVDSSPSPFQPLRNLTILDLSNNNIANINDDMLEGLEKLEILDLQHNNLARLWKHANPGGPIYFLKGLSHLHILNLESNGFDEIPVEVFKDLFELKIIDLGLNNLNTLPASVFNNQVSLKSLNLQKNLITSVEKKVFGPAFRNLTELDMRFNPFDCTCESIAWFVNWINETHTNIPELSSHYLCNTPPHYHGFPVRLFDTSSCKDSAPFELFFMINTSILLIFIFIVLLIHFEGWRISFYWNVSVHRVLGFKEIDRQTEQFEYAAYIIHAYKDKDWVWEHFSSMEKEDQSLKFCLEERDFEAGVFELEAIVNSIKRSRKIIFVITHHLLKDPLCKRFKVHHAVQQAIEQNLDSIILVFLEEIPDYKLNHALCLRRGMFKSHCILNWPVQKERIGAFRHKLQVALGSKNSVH
# [8] = target: Toll-like receptor 2 (Homo sapiens) (UniProt O60603); assay: Antagonist activity at TLR2 in human THP1 cells assessed as inhibition of PGN-stimulated IL-1beta level at 10 uM by bead based immunoassay; type: cell-based
# Sequence of Toll-like receptor 2 (Homo sapiens) (O60603 whole entry): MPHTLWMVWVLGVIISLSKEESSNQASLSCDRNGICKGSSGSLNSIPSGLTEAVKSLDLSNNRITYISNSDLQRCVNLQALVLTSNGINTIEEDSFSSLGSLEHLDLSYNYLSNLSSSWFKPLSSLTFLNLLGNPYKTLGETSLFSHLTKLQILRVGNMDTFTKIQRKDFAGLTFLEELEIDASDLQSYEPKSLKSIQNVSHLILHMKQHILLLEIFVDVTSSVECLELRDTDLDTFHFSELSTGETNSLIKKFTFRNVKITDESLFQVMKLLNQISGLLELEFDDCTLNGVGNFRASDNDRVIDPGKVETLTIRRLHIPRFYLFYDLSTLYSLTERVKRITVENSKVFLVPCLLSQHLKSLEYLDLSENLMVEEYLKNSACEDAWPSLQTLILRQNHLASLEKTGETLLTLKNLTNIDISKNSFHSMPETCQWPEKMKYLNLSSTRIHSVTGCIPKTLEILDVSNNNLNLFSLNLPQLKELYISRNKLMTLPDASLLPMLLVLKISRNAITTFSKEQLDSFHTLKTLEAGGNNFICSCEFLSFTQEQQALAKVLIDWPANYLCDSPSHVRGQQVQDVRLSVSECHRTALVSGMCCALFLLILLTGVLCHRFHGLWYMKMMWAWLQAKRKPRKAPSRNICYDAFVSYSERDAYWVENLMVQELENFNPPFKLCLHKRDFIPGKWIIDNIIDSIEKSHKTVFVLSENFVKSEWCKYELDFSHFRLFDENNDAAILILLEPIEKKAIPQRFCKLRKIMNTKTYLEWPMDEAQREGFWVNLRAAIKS
# [9] = target: Toll-like receptor 2 (Homo sapiens) (UniProt O60603); assay: Antagonist activity at TLR2 in human THP1 cells assessed as inhibition of PGN-stimulated TNFalpha level at 10 uM by bead based immunoassay; type: cell-based
# [10] = target: T2, NF-kappa-B inhibitor alpha (Homo sapiens) (UniProt P25963); assay: Inhibition of TNFalpha-stimulated IkBalpha phosphorylation in human AD293 cells at 10 uM after 3 hrs by Western blot analysis; type: cell-based
# T2 sequence (whole entry): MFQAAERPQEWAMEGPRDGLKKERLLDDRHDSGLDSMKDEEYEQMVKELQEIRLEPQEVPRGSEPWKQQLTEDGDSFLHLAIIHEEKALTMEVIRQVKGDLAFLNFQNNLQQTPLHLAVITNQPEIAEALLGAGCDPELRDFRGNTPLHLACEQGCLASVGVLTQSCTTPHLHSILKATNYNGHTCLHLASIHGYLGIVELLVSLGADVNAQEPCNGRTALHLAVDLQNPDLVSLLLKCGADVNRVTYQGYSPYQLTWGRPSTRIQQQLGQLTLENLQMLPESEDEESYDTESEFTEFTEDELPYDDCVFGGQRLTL
# AD293 [11] = assay: Effect on IkBalpha protein expression in TNFalpha-stimulated human AD293 cells at 10 uM after 3 hrs by Western blot analysis; type: functional, cell-based
# THP-1 [12] = assay: Upregulation of IKKalpha protein expression in human THP1 cells at 10 uM after 3 hrs by Western blot analysis; type: functional, cell-based
# AD293 [13] = assay: Upregulation of IKKalpha protein expression in TNFalpha-stimulated human AD293 cells at 10 uM after 3 hrs by Western blot analysis; type: functional, cell-based
# AD293 [14] = assay: Upregulation of IKKalpha protein expression in human AD293 cells at 10 uM after 3 hrs by Western blot analysis; type: functional, cell-based
# Toll-like receptor 4 [15] = target: T1, Toll-like receptor 4; assay: Antagonist activity at TLR4 in human THP1 cells assessed as inhibition of LPS-stimulated NF-kB non-canonical signaling pathway by measuring decrease in p100 phosphorylation at 10 uM after 3 hrs by Western blot analysis; type: cell-based
# Toll-like receptor 4 [16] = target: T1, Toll-like receptor 4; assay: Antagonist activity at TLR4 in human THP1 cells assessed as inhibition of LPS-stimulated NF-kB non-canonical signaling pathway by measuring decrease in p100/p52 phosphorylation at 10 uM after 3 hrs by Western blot analysis; type: cell-based
# Toll-like receptor 4 [17] = target: T1, Toll-like receptor 4; assay: Antagonist activity at TLR4 in human THP1 cells assessed as inhibition of LPS-stimulated NF-kB non-canonical signaling pathway by measuring decrease in RelB expression at 10 uM after 3 hrs by Western blot analysis; type: cell-based
# [18] = target: T3, Nuclear factor NF-kappa-B p100 subunit (Homo sapiens) (UniProt Q00653); assay: Effect on p100 phosphorylation in human THP1 cells at 10 uM after 3 hrs by Western blot analysis; type: cell-based
# T3 sequence (whole entry): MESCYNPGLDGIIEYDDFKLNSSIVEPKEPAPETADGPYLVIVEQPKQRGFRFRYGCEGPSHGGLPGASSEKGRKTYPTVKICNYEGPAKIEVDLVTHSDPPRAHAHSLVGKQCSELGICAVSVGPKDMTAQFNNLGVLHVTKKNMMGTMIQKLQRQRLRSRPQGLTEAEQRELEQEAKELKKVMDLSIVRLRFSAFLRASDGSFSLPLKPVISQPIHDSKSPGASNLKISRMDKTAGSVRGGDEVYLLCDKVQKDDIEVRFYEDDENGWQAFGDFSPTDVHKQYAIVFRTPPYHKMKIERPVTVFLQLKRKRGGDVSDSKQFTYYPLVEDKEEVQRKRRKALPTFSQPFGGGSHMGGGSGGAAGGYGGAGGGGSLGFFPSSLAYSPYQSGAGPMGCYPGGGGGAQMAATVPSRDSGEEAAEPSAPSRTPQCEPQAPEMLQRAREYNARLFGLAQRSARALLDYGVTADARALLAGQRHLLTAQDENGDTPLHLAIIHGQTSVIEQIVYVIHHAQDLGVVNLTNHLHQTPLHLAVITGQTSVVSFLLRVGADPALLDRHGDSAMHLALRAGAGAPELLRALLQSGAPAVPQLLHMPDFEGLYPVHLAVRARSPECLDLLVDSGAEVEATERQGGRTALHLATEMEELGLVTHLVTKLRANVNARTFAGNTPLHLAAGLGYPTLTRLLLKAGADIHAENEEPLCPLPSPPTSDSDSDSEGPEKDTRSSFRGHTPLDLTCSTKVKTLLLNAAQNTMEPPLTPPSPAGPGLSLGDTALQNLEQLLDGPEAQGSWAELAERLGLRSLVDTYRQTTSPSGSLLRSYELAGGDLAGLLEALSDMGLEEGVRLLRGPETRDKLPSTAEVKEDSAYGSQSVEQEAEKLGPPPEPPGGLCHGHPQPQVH
# [19] = target: T3, Nuclear factor NF-kappa-B p100 subunit (Homo sapiens); assay: Effect on p100/p52 phosphorylation in human THP1 cells at 10 uM after 3 hrs by Western blot analysis; type: cell-based
# Toll-like receptor 4 [20] = target: T1, Toll-like receptor 4; assay: Antagonist activity at TLR4 in human THP1 cells harboring human TRAF6 assessed as inhibition of LPS-stimulated IL-1beta level at 10 uM by bead based immunoassay; type: cell-based
# Toll-like receptor 4 [21] = target: T1, Toll-like receptor 4; assay: Antagonist activity at TLR4 in human THP1 cells harboring human TRAF6 assessed as inhibition of LPS-stimulated TNFalpha level at 10 uM by bead based immunoassay; type: cell-based
# Toll-like receptor 4 [22] = target: T1, Toll-like receptor 4; assay: Antagonist activity at TLR4 in human THP1 cells harboring human TRAF6 assessed as inhibition of LPS-stimulated IL-6 level at 10 uM by bead based immunoassay; type: cell-based
SMILES,Activity (THP-1 [1]),EC50 (Toll-like receptor 4 [2]),EC10 (Homo sapiens),CC10 (AD293 [3]),inhibition (Toll-like receptor 4 [4]),inhibition (Toll-like receptor 4 [5]),inhibition (Toll-like receptor 4 [6]),inhibition [7],inhibition [8],inhibition [9],inhibition [10],Activity (AD293 [11]),Activity (THP-1 [12]),Activity (AD293 [13]),Activity (AD293 [14]),inhibition (Toll-like receptor 4 [15]),inhibition (Toll-like receptor 4 [16]),inhibition (Toll-like receptor 4 [17]),Activity [18],Activity [19],further results
CC(=O)[C@]1(O)CC[C@@]2(O)[C@]1(C)[C@H](OC(=O)c1ccc(O)cc1)C[C@@H]1[C@@]3(C)CC[C@H](OC(=O)CCl)CC3=CC[C@]12O,inactive,3.27 µM,> 10 µM,> 10 µM,Active,Active,Active,Active,Active,Active,inactive,inactive,Active,Active,Active,inactive,inactive,inactive,inactive,inactive,inhibition (Toll-like receptor 4 [20]): inactive; inhibition (Toll-like receptor 4 [21]): inactive; inhibition (Toll-like receptor 4 [22]): inactive
COc1ccc(/C=C/C(=O)O[C@H]2CC[C@@]3(C)C(=CC[C@]4(O)[C@@H]3C[C@@H](OC(=O)/C=C(\C)C(C)C)[C@@]3(C)[C@]4(O)CC[C@@]3(O)C(C)=O)C2)cc1,inactive,3.95 µM,> 10 µM,> 10 µM,Active,Active,Active,Active,Active,Active,inactive,inactive,Active,Active,Active,inactive,inactive,inactive,inactive,inactive,inhibition (Toll-like receptor 4 [20]): inactive; inhibition (Toll-like receptor 4 [21]): inactive; inhibition (Toll-like receptor 4 [22]): inactive
